Where a name gives a salt, the structure may show the parent alone.
Legend:
LIMK1KD = molecular target: T1, LIMK1KD (Homo sapiens, UniProt P53667); experiment: Differential (dynamic) scanning fluorimetry (DSF) assay, LIMK1KD; type: binding; settings: 2 µM LIMK1KD, compound 10 µM, single shot; for ΔTm at 10 µM: read-out: TM Shift LIMK1 (K)
T1 construct: His6 (N, cleaved yes); made in house; host or cells: baculovirus; Sf9 for virus, TriEx insect cells for expression

LIMK2KD = molecular target: T2, LIMK2KD (Homo sapiens, UniProt P53671); experiment: Differential (dynamic) scanning fluorimetry (DSF) assay, LIMK2KD; type: binding; settings: LIMK2KD, compound 10 µM, single shot; for ΔTm at 10 µM: read-out: TM Shift LIMK2 (K)
T2 construct: The cDNA coding for LIMK2 residues 330 to 632 was PCR amplified; His6 (N, cleaved yes); made in house; host or cells: baculovirus; Sf9 for virus, TriEx insect cells for expression
T2 sequence (P53671 330-632): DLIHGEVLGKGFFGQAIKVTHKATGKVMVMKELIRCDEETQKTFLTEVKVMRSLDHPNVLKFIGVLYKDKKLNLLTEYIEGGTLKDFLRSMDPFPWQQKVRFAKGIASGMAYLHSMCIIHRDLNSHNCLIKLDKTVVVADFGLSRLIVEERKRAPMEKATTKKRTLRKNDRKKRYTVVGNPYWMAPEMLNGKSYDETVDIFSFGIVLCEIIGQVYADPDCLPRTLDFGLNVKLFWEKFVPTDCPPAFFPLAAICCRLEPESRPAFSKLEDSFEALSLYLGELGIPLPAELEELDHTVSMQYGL

T1 sequence (P53667 330-637): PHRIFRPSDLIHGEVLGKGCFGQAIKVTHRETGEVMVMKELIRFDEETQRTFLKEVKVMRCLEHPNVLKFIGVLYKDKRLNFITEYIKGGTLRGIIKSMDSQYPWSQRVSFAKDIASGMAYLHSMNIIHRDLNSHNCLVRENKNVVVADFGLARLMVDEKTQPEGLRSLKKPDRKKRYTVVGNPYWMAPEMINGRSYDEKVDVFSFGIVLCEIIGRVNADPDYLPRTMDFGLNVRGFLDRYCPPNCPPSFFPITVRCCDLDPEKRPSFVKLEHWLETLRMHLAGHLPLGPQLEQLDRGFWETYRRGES

Compound | ΔTm at 10 µM (LIMK1KD) [°C] | ΔTm at 10 µM (LIMK2KD) [°C] | TM Shift LIMK1 (K) (LIMK1KD) | TM Shift LIMK2 (K) (LIMK2KD) | further results
Cc1c(NC(=O)OC[C@@H]2COCCN2)cn2ncnc(Nc3ccc4c(cnn4Cc4cccc(F)c4)c3)c12 [BMS-599626] | 0.7 | – | – | – | TM Shift LIMK2 (K) (LIMK2KD; 10 µM): -0.4 K; TM Shift LIMK2 (K) (LIMK2KD; listed as AC480 (BMS-599626), 10 µM): 0.9 K
CCOc1ccn(-c2ccc(F)cc2)c(=O)c1C(=O)Nc1ccc(Oc2ccnc(N)c2Cl)c(F)c1 [BMS-777607] | 3.8 | -0.2 | – | – | –
Nc1nccc(Oc2ccc(NC(=O)c3c[nH]cc(-c4ccc(F)cc4)c3=O)cc2F)c1Cl [BMS-794833] | 1.5 | 2 | – | – | –
CCn1c(C(=O)N(C2CC2)C2CC2)cc2c3c(ncn3C)c(Nc3cc(C)n(C)n3)nc21 [BMS-911543] | 1.8 | 0.3 | – | – | –
CC(C)c1cnn2c(NCc3ccccc3)cc(NCCCCCCN)nc12.Cl [BS-181 HCl] | – | – | 0.7 | 1.7 | –
O=C(NCCCNc1nc(Nc2cccc(NC(=O)N3CCCC3)c2)ncc1I)c1cccs1 [BX-795] | 5 | 4.7 | – | – | –
O=C(Nc1cccc(Nc2ncc(Br)c(NCCc3cnc[nH]3)n2)c1)N1CCCC1 [BX-912] | – | – | 3.6 | 2.8 | –
Cc1nc(NC(=O)N2CCC[C@H]2C(N)=O)sc1-c1ccnc(C(C)(C)C(F)(F)F)c1 [BYL719] | -0.5 | -0.2 | – | – | –
Cc1ccc(NC(=O)c2ccc(CN3CC[C@H](N(C)C)C3)c(C(F)(F)F)c2)cc1Nc1nccc(-c2cncnc2)n1 [Bafetinib] | 2.5 | 1.1 | – | – | –
COC(=O)[C@]12CCC(C)(C)C[C@H]1[C@H]1C(=O)C=C3[C@@]4(C)C=C(C#N)C(=O)C(C)(C)[C@@H]4CC[C@@]3(C)[C@]1(C)CC2 [Bardoxolone Methyl] | -1 | 0.8 | – | – | –
CCS(=O)(=O)N1CC(CC#N)(n2cc(-c3ncnc4[nH]ccc34)cn2)C1 [Baricitinib] | 1.6 | 1 | – | – | –
COc1cc(Nc2c(C#N)cnc3cc(OCCCN4CCN(C)CC4)c(OC)cc23)c(Cl)cc1Cl [Bosutinib (SKI-606), Bosutinib] | 0.1 | 1.3 | – | – | –
Cc1cc2c(F)c(Oc3ncnn4cc(OC[C@@H](C)O)c(C)c34)ccc2[nH]1 [Brivanib (BMS-540215), Brivanib] | 0.8 | 0.3 | – | – | –
Cc1cc2c(F)c(Oc3ncnn4cc(OC[C@@H](C)OC(=O)[C@H](C)N)c(C)c34)ccc2[nH]1 [Brivanib Alaninate (BMS-582664), Brivanib Alaninate] | 0.7 | 0 | – | – | –
Nc1cc(C(F)(F)F)c(-c2cc(N3CCOCC3)nc(N3CCOCC3)n2)cn1 [Buparlisib] | – | – | 0.6 | – | TM Shift LIMK1 (K) (LIMK1KD; listed as BKM120 (NVP-BKM120, Buparlisib)): -1.9 K; TM Shift LIMK2 (K) (LIMK2KD; 10 µM): 0.0 K; TM Shift LIMK2 (K) (LIMK2KD; listed as BKM120 (NVP-BKM120, Buparlisib), 10 µM): 0.7 K
O=C(/C=C/c1ccc(O)c(O)c1)c1ccc(O)cc1O [Butein] | -0.6 | 1.9 | – | – | –
NC1(Cc2ccc(Cl)cc2)CCN(c2ncnc3[nH]ccc23)CC1 [CCT128930] | – | – | 0.4 | 1.0 | –
CN(C)c1ccc(-c2nc3ncc(Cl)c(N4CCN(CC(=O)Nc5nccs5)CC4)c3[nH]2)cc1 [CCT129202] | – | – | 2.4 | 4.6 | –
Cc1cc(CN2CCN(c3c(Br)cnc4nc(-c5ccc(N6CCN(C)CC6)cc5)[nH]c34)CC2)no1 [CCT137690] | – | – | 3.4 | 3.5 | –
COc1cc2ncnc(Oc3cccc(NC(=O)Nc4cc(C(C)(C)C(F)(F)F)on4)c3)c2cc1OC [CEP-32496] | -0.2 | -0.1 | – | – | –
CN1CCN(c2cccc(Nc3nc4c(-c5ccc(S(C)(=O)=O)cc5)cccn4n3)c2)CC1 [CEP-33779] | – | – | 1.0 | 1.5 | –
O=C(NC(NC(=S)Nc1ccc(F)c([N+](=O)[O-])c1)C(Cl)(Cl)Cl)C(c1ccccc1)c1ccccc1 (centres unmarked) [CGK 733] | – | – | 0.7 | 4.2 | –
CS(=O)(=O)N1CCc2c(-c3cnc(N)nc3)nc(N3CCOCC3)nc21 [CH5132799] | 1.3 | 0.1 | – | – | –
O=c1[nH]c2ccc(Cl)cc2c(N[C@@H]2CN3CCC2CC3)c1-c1nc2ccccc2[nH]1 [CHIR-124] | – | – | 2.2 | -1.7 | –
Cc1c[nH]c(-c2cnc(NCCNc3ccc(C#N)cn3)nc2-c2ccc(Cl)cc2Cl)n1 [CHIR-99021 (CT99021) HCl] | 3.1 | -0.3 | – | – | –
